Bounds are passed on as bounds.

This test has as its target T1, Lon protease homolog, mitochondrial (Homo sapiens, UniProt P36776).
T1 sequence (P36776 whole entry): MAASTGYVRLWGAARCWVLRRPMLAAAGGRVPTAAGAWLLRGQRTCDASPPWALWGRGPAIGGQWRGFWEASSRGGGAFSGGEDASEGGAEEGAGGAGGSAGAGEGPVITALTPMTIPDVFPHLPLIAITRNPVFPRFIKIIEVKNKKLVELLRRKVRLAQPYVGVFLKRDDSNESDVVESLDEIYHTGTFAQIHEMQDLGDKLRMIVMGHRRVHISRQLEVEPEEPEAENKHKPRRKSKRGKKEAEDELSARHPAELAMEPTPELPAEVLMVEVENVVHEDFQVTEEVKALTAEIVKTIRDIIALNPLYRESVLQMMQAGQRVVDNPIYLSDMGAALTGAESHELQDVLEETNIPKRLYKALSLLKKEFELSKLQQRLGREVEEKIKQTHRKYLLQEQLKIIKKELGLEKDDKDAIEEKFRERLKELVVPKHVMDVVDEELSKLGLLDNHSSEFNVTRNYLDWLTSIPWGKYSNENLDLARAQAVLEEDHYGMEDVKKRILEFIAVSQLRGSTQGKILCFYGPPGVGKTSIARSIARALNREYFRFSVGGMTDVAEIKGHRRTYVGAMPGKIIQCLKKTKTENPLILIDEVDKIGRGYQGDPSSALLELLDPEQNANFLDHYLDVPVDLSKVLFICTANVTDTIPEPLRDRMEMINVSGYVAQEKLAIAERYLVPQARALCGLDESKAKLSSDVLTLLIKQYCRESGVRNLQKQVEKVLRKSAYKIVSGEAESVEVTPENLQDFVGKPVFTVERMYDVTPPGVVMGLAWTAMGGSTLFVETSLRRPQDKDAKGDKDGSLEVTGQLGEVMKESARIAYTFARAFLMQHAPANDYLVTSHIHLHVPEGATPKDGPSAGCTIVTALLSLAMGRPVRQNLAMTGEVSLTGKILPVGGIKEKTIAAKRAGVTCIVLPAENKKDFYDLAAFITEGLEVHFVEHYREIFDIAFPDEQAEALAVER
Put plainly: Biological/Biochemical Evaluation. The procedure:
In this Example, LONP1 (NM_004793.4) activity was measured by a FRET-based assay for protease activity using a fluorogenic peptide DabcylYRGIT(2Abu)SORQK(5-FAM) (Cambridge Research Biochemicals) as substrate. LONP1 activity is followed by an increase in fluorescence signal due to the degradation of the peptide. Inhibition of LONP1 protease activity by an inhibitor compound of the disclosure elicits a decrease in the fluorescent signal. The assay is performed in a 384-well plate (Greiner, cat. #781076) using the following reagents and conditions: substrate (3 μM) was incubated for 1 hour at 37° C. in the presence of LONP1 (15 nM as monomer), 25 mM Tris pH 8.0, 10 mM MgCl2, 0.03 mg/mL […], 0.5 mM DTT, 0.0003% Tween-20, 10 mM NaCl, 0.06 mM ATP and 0.5 mM EGTA in a 15 μL final volume. The LONP1-containing mix (10 μL) was incubated with the test compound for 15 min at 37° C. before adding the peptide-containing mix (5 μL). Solutions were dispensed using a small cassette-Multidrop Combi (Thermo Scientific). Fluorescence was measured using a PheraStar plate reader (BMG Labtech) FI-FRET EX 485 nm Em 520 nm.
As usually defined, the IC50 is the concentration that inhibits the measured activity by half. Low values mean inhibition by little substance, high ones a need for much substance. In the case of `COC[C@@H](NC(=O)c1cnccn1)C(=O)N[C@@H](CCCc1ccc(OC)cc1)B(O)O` [US20250320234, Compound 5], the half-maximal inhibitory concentration (IC50) is less than 50 nM.
For `CO[C@@H](C)[C@@H](NC(=O)c1cnccn1)C(=O)N[C@@H](CCCc1ccccc1)B(O)O` [US20250320234, Compound 6] the value was less than 50 nM.
For `COC[C@@H](NC(=O)[C@@H]1CCC(=O)N1)C(=O)N[C@@H](CCCc1ccccc1)B(O)O` [US20250320234, Compound 7] the value was less than 50 nM; for `COC[C@@H](NC(=O)c1ccccn1)C(=O)N[C@@H](CCCc1ccccc1)B(O)O` [US20250320234, Compound 9], less than 50 nM.
In the case of `COC[C@@H](NC(=O)c1cccc(C)n1)C(=O)N[C@@H](CCCc1ccccc1)B(O)O` [US20250320234, Compound 10], the IC50 was less than 50 nM.
The figure for `O=C(N[C@H](COCc1ccccc1)C(=O)N[C@@H](CCCc1ccccc1)B(O)O)c1cnccn1` [US20250320234, Compound 11] is less than 50 nM.
The figure for `COC[C@@H](NC(=O)c1cnccn1)C(=O)N[C@@H](CCCc1ccc(Cl)cc1)B(O)O` [US20250320234, Compound 12] is less than 50 nM; for `COC[C@@H](NC(=O)c1cnccn1)C(=O)N[C@@H](CCOc1ccccc1)B(O)O` [US20250320234, Compound 14] it is less than 50 nM; for `O=C(N[C@H](COC1CC1)C(=O)N[C@@H](CCCc1ccccc1)B(O)O)c1cnccn1` [US20250320234, Compound 20] it is less than 50 nM.
The figure for `COC[C@@H](NC(=O)c1cnccn1)C(=O)N[C@@H](CCOc1ccc(Cl)cc1)B(O)O` [US20250320234, Compound 21] is less than 50 nM; for `COC[C@@H](NC(=O)c1cnccn1)C(=O)N[C@@](C)(CCCc1ccccc1)B(O)O` [US20250320234, Compound 22] it is greater than 5000 nM; for `COC[C@@H](NC(=O)c1cnccn1)C(=O)N[C@@H](CCOc1ccc(F)cc1)B(O)O` [US20250320234, Compound 23] it is less than 50 nM.
`COC[C@@H](NC(=O)c1cnccn1)C(=O)N[C@@H](CCOc1ccc(Cl)cc1F)B(O)O` [US20250320234, Compound 24] showed a concentration for half-maximal inhibition (IC50) of less than 50 nM.
`COC[C@@H](NC(=O)c1cnccn1)C(=O)N[C@@H](CCOc1ccc(Cl)c(F)c1)B(O)O` [US20250320234, Compound 25] showed a half-inhibitory concentration (IC50) of less than 50 nM.
For `COC[C@@H](NC(=O)c1cnccn1)C(=O)N[C@H](CCOc1ccc(Cl)cc1C)B(O)O` [US20250320234, Compound 28] the value was greater than 5000 nM.
For `COC[C@@H](NC(=O)N1CCOCC1)C(=O)N[C@@H](CCCc1ccccc1)B(O)O` [US20250320234, Compound 31] the value was less than 50 nM; for `COC[C@@H](NC(=O)c1cnccn1)C(=O)N[C@@H](CCCc1ccc(F)cc1)B(O)O` [US20250320234, Compound 32], less than 50 nM; for `O=C(N[C@H](CSc1ccccc1)C(=O)N[C@@H](CCCc1ccccc1)B(O)O)c1cnccn1` [US20250320234, Compound 34], less than 50 nM.
The figure for `CN(C)S(=O)(=O)C[C@H](NC(=O)c1cnccn1)C(=O)N[C@@H](CCCc1ccccc1)B(O)O` [US20250320234, Compound 36] is less than 50 nM; for `COC[C@@H](NC(=O)c1cccc(C)n1)C(=O)N[C@@H](CCOc1ccccc1)B(O)O` [US20250320234, Compound 42] it is less than 50 nM; for `COC[C@@H](NC(=O)c1ccccn1)C(=O)N[C@@H](CCOc1ccccc1)B(O)O` [US20250320234, Compound 43] it is less than 50 nM.
As for `COC[C@@H](NC(=O)c1cncc(C)c1)C(=O)N[C@@H](CCOc1ccccc1)B(O)O` [US20250320234, Compound 44], the 50% inhibitory concentration (IC50) is less than 50 nM.
The figure for `COC[C@@H](NC(=O)c1ccc(Cl)cc1)C(=O)N[C@@H](CCCc1ccccc1)B(O)O` [US20250320234, Compound 51] is less than 50 nM; for `COC[C@@H](NC(=O)c1cncnc1)C(=O)N[C@@H](CCCc1ccccc1)B(O)O` [US20250320234, Compound 52] it is less than 50 nM; for `COC[C@@H](NC(=O)c1cccc(Cl)c1)C(=O)N[C@@H](CCCc1ccccc1)B(O)O` [US20250320234, Compound 54] it is less than 50 nM.
On to `COC[C@@H](NC(=O)c1cc(Cl)ccc1Cl)C(=O)N[C@@H](CCCc1ccccc1)B(O)O` [US20250320234, Compound 56], for which the IC50 was less than 50 nM.
For `COC[C@@H](NC(=O)c1ccccc1Cl)C(=O)N[C@@H](CCCc1ccccc1)B(O)O` [US20250320234, Compound 57] the value was less than 50 nM.
